Assay results published in ChEMBL document CHEMBL1806438, “Thrombin inhibitors with lipid peroxidation and lipoxygenase inhibitory activities” (Bioorg Med Chem Lett, 2011).

Legend:
[1] = (§1) Inhibition of soybean lipoxygenase by UV absorbance based assay; set-up: species or system Glycine max
[2] = system: Radical scavenging activity; test: Antioxidant activity assessed as DPPH radical scavenging activity at 10 uM after 20 mins; type: functional
[3] = Antioxidant activity against AAPH-induced linoleic acid peroxidation by UV spectrophotometry analysis; type: functional
[4] = system: Radical scavenging activity; test: Antioxidant activity assessed as DPPH radical scavenging activity at 10 uM after 60 mins; type: functional
[5] = system: Radical scavenging activity; test: Antioxidant activity assessed as DPPH radical scavenging activity at 50 uM after 60 mins; type: functional
[6] = system: Radical scavenging activity; test: Antioxidant activity assessed as DPPH radical scavenging activity at 50 uM after 20 mins; type: functional
[7] = system: Glycine max; test: as §1
[8] = molecular target: Prothrombin (Homo sapiens, UniProt P00734); test: Inhibition of thrombin using S-2238 as substrate after 15 mins by spectrophotometric analysis
[9] = Antioxidant activity against AAPH-induced linoleic acid peroxidation at 100 uM by UV spectrophotometry analysis; type: functional

| Compound | IC50 [1] [µM] | Activity [2] [%] | IC50 [3] [µM] | Activity [4] [%] | Activity [5] [%] | Activity [6] [%] | inhibition [7] [%] | Ki [8] [µM] | inhibition [9] [%] |
| --- | --- | --- | --- | --- | --- | --- | --- | --- | --- |
| O=C(O)/C=C/c1ccc(O)c(O)c1 [CAFFEIC ACID] | 600 | – | – | – | – | – | – | – | – |
| CCOC(=O)C(=O)N(Cc1ccc(F)cc1)c1ccc2c(c1)N(C)CC(C)(COc1ccc(C(=N)N)cc1)O2 (configuration not stated) | – | 10 | 51 | 21 | 12 | 10 | > 0 | – | – |
| CCOC(=O)C(=O)N(Cc1cc(F)cc(F)c1)c1ccc2c(c1)N(C)CC(C)(COc1ccc(C(=N)N)cc1)O2 (configuration not stated) | 99 | 25 | 69 | 36 | 28 | 23 | – | – | – |
| CCOC(=O)C(=O)N(Cc1ccc(F)c(F)c1)c1ccc2c(c1)N(C)CC(C)(COc1ccc(C(=N)N)cc1)O2 (configuration not stated) | – | 35 | 61.5 | 46 | 28 | 23 | > 0 | 0.37 | – |
| CCOC(=O)CN(Cc1cc(F)cc(F)c1)c1ccc2c(c1)N(C)CC(C)(COc1ccc(C(=N)N)cc1)O2 (configuration not stated) | – | 8 | 36 | 18 | 10 | 8 | 41.7 | 0.95 | – |
| Cc1c(C)c2c(c(C)c1O)CCC(C)(C(=O)O)O2 (configuration not stated) | – | – | – | – | – | – | – | – | 63 |
| CCOC(=O)CN(Cc1ccc(F)cc1)c1ccc2c(c1)N(C)CC(C)(COc1ccc(C(=N)N)cc1)O2 (configuration not stated) | 73 | 11 | 77 | 24 | 14 | 11 | – | 0.69 | – |
| CCOC(=O)CN(Cc1cccc(F)c1)c1ccc2c(c1)OC(C)(COc1ccc(C(=N)N)cc1)CN2C (configuration not stated) | – | 71 | 81 | 85 | 63 | 48 | > 0 | 0.35 | – |
| CCOC(=O)CN(Cc1cccc(F)c1)c1ccc2c(c1)N(C)CC(C)(COc1ccc(C(=N)N)cc1)O2 (configuration not stated) | – | 10 | 59 | 23 | 14 | 11 | 9.7 | 0.9 | – |
| CCOC(=O)CN(Cc1ccc(F)c(F)c1)c1ccc2c(c1)OC(C)(COc1ccc(C(=N)N)cc1)CN2C (configuration not stated) | – | 84 | 70 | 90 | 81 | 70 | > 0 | 0.43 | – |
| CCOC(=O)CN(Cc1ccc(F)cc1)c1ccc2c(c1)OC(C)(COc1ccc(C(=N)N)cc1)CN2C (configuration not stated) | – | 88 | 94.5 | 93 | 70 | 62 | > 0 | 0.31 | – |
| CCOC(=O)C(=O)N(Cc1cccc(F)c1)c1ccc2c(c1)N(C)CC(C)(COc1ccc(C(=N)N)cc1)O2 (configuration not stated) | – | 12 | 90 | 24 | 14 | 11 | > 0 | – | – |
| CC(Cc1ccc(O)c(O)c1)C(C)Cc1ccc(O)c(O)c1 (configuration not stated) | – | 83 | – | 83 | 81 | 68 | – | – | – |
| CCOC(=O)CN(Cc1cc(F)cc(F)c1)c1ccc2c(c1)OC(C)(COc1ccc(C(=N)N)cc1)CN2C (configuration not stated) | – | 75 | 69 | 86 | 68 | 54 | > 0 | 0.48 | – |
| CCOC(=O)CN(Cc1ccc(F)c(F)c1)c1ccc2c(c1)N(C)CC(C)(COc1ccc(C(=N)N)cc1)O2 (configuration not stated) | – | 8 | 68 | 21 | 16 | 11 | > 0 | 0.66 | – |
